According to patent US20060069132A1, “Azolecarboxamide herbicides” (priority 2004, published 2006):

Tests used:
giant foxtail = assay: Test C pre-/postemergence herbicide test; format: in vivo, Setaria faberi
Summary of the method: (§1)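 Visual injury scores run from 0 (no effect) to 100 (complete control), assessed relative to untreated controls 12 to 14 days after treatment in the greenhouse. Chemicals were formulated in a non-phytotoxic solvent mixture with surfactant and applied to soil after planting or to emerged plants at the 1- to 4-leaf stage.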

blackgrass = assay: Test B postemergence herbicide test; format: in vivo, Alopecurus myosuroides
Summary of the method: (§2)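 Each value is a visual 0–100 response rating taken against controls 13 to 15 days after treatment in the greenhouse. Plants received formulated chemical postemergence at the 1- to 4-leaf stage or, in flooded paddy, at the 2-leaf stage.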

cocklebur = assay: Test C pre-/postemergence herbicide test; format: in vivo, Xanthium strumarium
Summary of the method: as §1

johnsongrass = assay: Test C pre-/postemergence herbicide test; format: in vivo, Sorghum halepense
Summary of the method: as §1

common ragweed = assay: Test C pre-/postemergence herbicide test; format: in vivo, Ambrosia elatior; design: key to Plant response rating, Ragweed: 0 = no effect, 100 = complete control
Summary of the method: as §1

large crabgrass = assay: Test A pre-/postemergence herbicide test; format: in vivo, Digitaria sanguinalis
Summary of the method: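 Pre: seeded sandy loam, directed soil spray, compound in non-phytotoxic solvent + surfactant. Post: 1–2-leaf plants (2–10 cm), sprayed to runoff. Greenhouse ~10 d; visual injury vs untreated, 0–100 scale.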

rice [1] = assay: Test B pre-/postemergence herbicide test; format: in vivo, Oryza sativa; conditions: preemergence
Summary of the method: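 Response was scored visually 13 to 15 days after treatment against untreated greenhouse controls, 0 meaning no effect and 100 complete control. Formulations (solvent mixture plus surfactant) went onto soil after planting, onto foliage of 1- to 4-leaf plants, and onto 2-leaf plants in a flooded paddy set including rice and barnyardgrass.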

ducksalad = assay: Test B flooded paddy test; format: in vivo, Heteranthera limosa; conditions: 1000 g ai/ha, scale 0 to 100 (0 no effect, 100 complete control)
Summary of the method: as §2

rice [2] = assay: Test C flooded paddy test; format: in vivo, Oryza sativa
Summary of the method: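 Plants were grown to the 1- to 4-leaf stage (2–18 cm) and then treated postemergence, or grown to the 2-leaf stage for the flooded paddy test. They were held in a greenhouse for 12 to 14 days and then scored by eye against controls, where 0 is no effect and 100 is complete control.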

[3] = test system: common (oilseed) sunflower; assay: Test C pre-/postemergence herbicide test; format: in vivo, Helianthus annuus; conditions: preemergence; for Plant response rating (0 = no effect, 100 = complete control), Sunflower: 125 g ai/ha
Text: Seeds of plant species selected from bermudagrass (Cynodon dactylon (L.) Pers.), Surinam grass (Urochloa decumbens (Staph) R. D. Webster, previously named Brachiaria decumbens Stapf), cocklebur (Xanthium strumarium L.), corn (Zea mays L.), large crabgrass (Digitaria sanguinalis (L.) Scop.), woolly cupgrass (Eriochloa villosa (Thunb.) Kunth), giant foxtail (Setaria faberi Herrm.), goosegrass (Eleusine indica (L.) Gaertn.), johnsongrass (Sorghum halepense (L.) Pers.), kochia (Kochia scoparia (L.) Schrad.), lambsquarters (Chenopodium album L.), morningglory (Ipomoea coccinea L.), eastern black nightshade (Solanum ptycanthum Dunal), yellow nutsedge (Cyperus esculentus L.), pigweed (Amaranthus retroflexus L.), common ragweed (Ambrosia elatior L.), soybean (Glycine max (L.) Merr.), common (oilseed) sunflower (Helianthus annuus L.) and velvetleaf (Abutilon theophrasti Medik.) were planted and treated preemergence with test chemicals formulated in a non-phytotoxic solvent mixture which included a surfactant.
At the same time, plants selected from these crop and weed species and also winter barley (Hordeum vulgare L.), blackgrass (Alopecurus myosuroides Huds.), canarygrass (Phalaris minor Retz.), chickweed (Stellaria media (L.) Vill.), downy bromegrass (Bromus tectorum L.), green foxtail (Setaria viridis (L.) Beauv.), Italian ryegrass (Lolium multiflorum Lam.), wheat (Triticum aestivum L.), wild oat (Avenafatua L.) and windgrass (Apera spica-venti (L.) Beauv.) were treated with postemergence applications of some of the test chemicals formulated in the same manner. Plants ranged in height from 2 to 18 cm (1- to 4-leaf stage) for postemergence treatments. Plant species in the flooded paddy test consisted of rice (Oryza sativa), smallflower umbrella sedge (Cyperus difformis L.), ducksalad (Heteranthera limosa (Sw.) Willd.) and barnyardgrass (Echinochloa crus-galli (L.) Beauv.) grown to the 2-leaf stage for testing. Treated plants and controls were maintained in a greenhouse for 12 to 14 days, after which time all species were compared to controls and visually evaluated. Plant response ratings, summarized in Table C, are based on a scale of 0 to 100 where 0 is no effect and 100 is complete control. A dash (-) response means no test result.

[4] = Postemergence, 500 g ai/ha, scale 0 to 100
[5] = Postemergence, 250 g ai/ha, scale 0 to 100, 0 no effect, 100 complete control
[6] = postemergence, 125 g ai/ha, scale 0 to 100
[7] = postemergence, 62 g ai/ha, scale 0 to 100
[8] = postemergence, 125 g ai/ha, visual rating, scale 0 (no effect) to 100 (complete control)
[9] = Postemergence, 500 g ai/ha, 0 to 100 scale, 0 no effect, 100 complete control
[10] = Postemergence, 2000 g ai/ha, 0 to 100 scale, 0 no effect, 100 complete control
[11] = postemergence, 500 g ai/ha, scale 0 to 100, 0 is no effect, 100 is complete control
[12] = Preemergence, 2000 g ai/ha, visual rating, 0 to 100 scale (0 no effect, 100 complete control)
[13] = preemergence, 500 g ai/ha, visual injury, 0 to 100 scale (0 no effect, 100 complete control)
[14] = 125 g ai/ha, 0 = no effect, 100 = complete control
[15] = 500 g ai/ha, visual rating, 0 = no effect, 100 = complete control
[16] = 125 g ai/ha, scale 0 to 100 (0 no effect, 100 complete control)
[17] = 125 g ai/ha, visual rating, scale 0 (no effect) to 100 (complete control), postemergence
[18] = 62 g ai/ha, preemergence, scale 0 to 100
[19] = 250 g ai/ha, scale 0-100, preemergence
[20] = 500 g ai/ha, scale 0 to 100 (0 no effect, 100 complete control), visual, 12 to 14 days, preemergence

## CCCCOC(=O)c1cccc(NC(=O)c2cc(C(C)(C)C)nn2CC)c1 [Compound 86]
Giant foxtail; [4]
  Foxtail, Giant plant response rating: 70
Giant foxtail; [5]
  Plant response rating, Foxtail, Giant: 50
Giant foxtail; [6]
  Plant response rating, Foxtail, Giant: 20
Giant foxtail; [7]
  Plant response rating, Foxtail, Giant: 10
blackgrass; Postemergence, 500 g ai/ha, visual rating after 13 to 15 days, scale 0 (no effect) to 100 (complete control)
  Plant response rating, Blackgrass: 20
blackgrass; [8]
  Blackgrass plant response rating: 10
cocklebur; [4]
  Cocklebur plant response rating: 100
cocklebur; [5]
  Plant response rating, Cocklebur: 100
cocklebur; [6]
  Plant response rating, Cocklebur: 95
cocklebur; [7]
  Plant response rating, Cocklebur: 85
johnsongrass; [4]
  Johnsongrass plant response rating: 30
johnsongrass; [5]
  Plant response rating, Johnsongrass: 10
johnsongrass; [7]
  Plant response rating, Johnsongrass: 10
Common ragweed; [4]
  Ragweed plant response rating: 70
Common ragweed; [5]
  Plant response rating, Ragweed: 70
Common ragweed; [6]
  Plant response rating, Ragweed: 65
Common ragweed; [7]
  Plant response rating, Ragweed: 10
Large crabgrass; [9]
  Crabgrass, Large plant response rating: 20
Large crabgrass; [10]
  Plant response rating, Crabgrass, Large: 25
Large crabgrass; Preemergence, 500 g ai/ha, visual rating, 0 to 100 scale (0 no effect, 100 complete control)
  Crabgrass, Large plant response rating: 0
Large crabgrass; Preemergence, 2000 g ai/ha, 0 to 100 scale, 0 no effect, 100 complete control
  Crabgrass, Large plant response rating: 0
Rice [1]; 125 g ai/ha, 0 to 100 scale, 0 is no effect, 100 is complete control
  Plant response rating, Rice: 0
ducksalad; visual rating, 13 to 15 days
  Ducksalad plant response rating: 20

## C=CCN(C)C(=O)c1cccc(NC(=O)c2cc(C(C)(C)C)nn2CC)c1 [Compound 285]
blackgrass; [8]
  Blackgrass plant response rating: 30
blackgrass; [11]
  Blackgrass plant response rating: 30
Large crabgrass; [9]
  Crabgrass, Large plant response rating: 15
Large crabgrass; [10]
  Plant response rating, Crabgrass, Large: 35
Large crabgrass; [12]
  Crabgrass, Large plant response rating: 85
Large crabgrass; [13]
  Crabgrass, Large plant response rating: 60
Rice [1]; [14]
  Rice plant response rating (0 to 100 scale): 40
Rice [1]; [15]
  Plant response rating, Rice: 80
Rice [2]; 62 g ai/ha, scale 0 to 100
  Rice plant response rating: 25
Rice [2]; [16]
  Rice plant response rating: 40
Rice [2]; 250 g ai/ha, scale of 0 to 100, 0 is no effect, 100 is complete control
  Rice plant response rating: 45
Rice [2]; 500 g ai/ha, visual rating after 12 to 14 days, scale 0 to 100 (0 no effect, 100 complete control)
  Plant response rating, Rice: 65
ducksalad
  Ducksalad plant response rating: 90

## CCOC(=O)c1cccc(NC(=O)c2cc(C(C)(C)C)nn2C)n1 [Compound 313]
blackgrass; [17]
  Blackgrass plant response rating: 0
blackgrass; [11]
  Blackgrass plant response rating: 10
Large crabgrass; [9]
  Crabgrass, Large plant response rating: 70
Large crabgrass; [10]
  Plant response rating, Crabgrass, Large: 100
Large crabgrass; [12]
  Crabgrass, Large plant response rating: 95
Large crabgrass; [13]
  Crabgrass, Large plant response rating: 85
Rice [1]; [14]
  Rice plant response rating (0 to 100 scale): 20
Rice [1]; [15]
  Plant response rating, Rice: 40
Rice [2]; 16 g ai/ha, scale 0 to 100
  Rice plant response rating: 0
Rice [2]; 31 g ai/ha, scale 0 to 100
  Rice plant response rating: 0
Rice [2]; 62 g ai/ha, scale 0 to 100
  Rice plant response rating: 0
Rice [2]; [16]
  Rice plant response rating: 20
ducksalad
  Ducksalad plant response rating: 80

## CCOC(=O)c1cccc(NC(=O)c2nn(C(C)(C)CC)nc2CC)c1 [Compound 375]
Giant foxtail; [18]
  Plant response rating, Foxtail, Giant: 70
Giant foxtail; 125 g ai/ha, preemergence
  Plant response rating (0 = no effect, 100 = complete control), Foxtail, Giant: 80
Giant foxtail; [5]
  Plant response rating, Foxtail, Giant: 60
Giant foxtail; [6]
  Plant response rating, Foxtail, Giant: 45
Giant foxtail; [7]
  Plant response rating, Foxtail, Giant: 40
blackgrass; [17]
  Blackgrass plant response rating: 30
blackgrass; [11]
  Blackgrass plant response rating: 40
cocklebur; [18]
  Plant response rating, Cocklebur: 0
cocklebur; 125 g ai/ha, preemergence
  Plant response rating (0 = no effect, 100 = complete control), Cocklebur: 0
cocklebur; [19]
  Plant response rating, Cocklebur: 0
cocklebur; [5]
  Plant response rating, Cocklebur: 15
cocklebur; [6]
  Plant response rating, Cocklebur: 10
cocklebur; postemergence, 31 g ai/ha, scale 0 to 100
  Plant response rating, Cocklebur: 0
cocklebur; [7]
  Plant response rating, Cocklebur: 10
[3]; 62 g ai/ha, scale 0 to 100
  Plant response rating, Sunflower: 0
[3]
  Plant response rating (0 = no effect, 100 = complete control), Sunflower: 0
[3]; 250 g ai/ha, scale 0-100
  Plant response rating, Sunflower: 0
johnsongrass; [18]
  Plant response rating, Johnsongrass: 0
johnsongrass; 125 g ai/ha, preemergence
  Plant response rating (0 = no effect, 100 = complete control), Johnsongrass: 5
johnsongrass; [19]
  Plant response rating, Johnsongrass: 5
johnsongrass; [5]
  Plant response rating, Johnsongrass: 10
johnsongrass; [6]
  Plant response rating, Johnsongrass: 5
johnsongrass; [7]
  Plant response rating, Johnsongrass: 5
Common ragweed; [18]
  Plant response rating, Ragweed: 0
Common ragweed; 125 g ai/ha, preemergence
  Plant response rating (0 = no effect, 100 = complete control), Ragweed: 5
Common ragweed; [19]
  Plant response rating, Ragweed: 10
Common ragweed; [6]
  Plant response rating, Ragweed: 10
Common ragweed; [7]
  Plant response rating, Ragweed: 5
ducksalad
  Ducksalad plant response rating: 20

## C=CCNC(=O)c1cccc(NC(=O)c2nn(C(C)(C)C)nc2CC)c1 [Compound 414]
Giant foxtail; [18]
  Plant response rating, Foxtail, Giant: 75
Giant foxtail; 125 g ai/ha, preemergence
  Plant response rating (0 = no effect, 100 = complete control), Foxtail, Giant: 95
Giant foxtail; [19]
  Plant response rating, Foxtail, Giant: 100
Giant foxtail; [20]
  Plant response rating, Foxtail, Giant: 100
blackgrass; Postemergence, 500 g ai/ha, scale 0 (no effect) to 100 (complete control)
  Blackgrass plant response rating: 50
blackgrass; [6]
  Blackgrass plant response rating: 40
cocklebur; [18]
  Plant response rating, Cocklebur: 0
cocklebur; 125 g ai/ha, preemergence
  Plant response rating (0 = no effect, 100 = complete control), Cocklebur: 15
cocklebur; [19]
  Plant response rating, Cocklebur: 20
cocklebur; [20]
  Plant response rating, Cocklebur: 30
[3]; 62 g ai/ha, scale 0 to 100
  Plant response rating, Sunflower: 0
[3]
  Plant response rating (0 = no effect, 100 = complete control), Sunflower: 0
[3]; 500 g ai/ha, scale 0 to 100 (0 no effect, 100 complete control), visual, 12 to 14 days
  Plant response rating, Sunflower: 0
johnsongrass; [18]
  Plant response rating, Johnsongrass: 95
johnsongrass; 125 g ai/ha, preemergence
  Plant response rating (0 = no effect, 100 = complete control), Johnsongrass: 95
johnsongrass; [19]
  Plant response rating, Johnsongrass: 100
johnsongrass; [20]
  Plant response rating, Johnsongrass: 100
Common ragweed; [18]
  Plant response rating, Ragweed: 15
Common ragweed; 125 g ai/ha, preemergence
  Plant response rating (0 = no effect, 100 = complete control), Ragweed: 45
Common ragweed; [20]
  Plant response rating, Ragweed: 65
ducksalad
  Ducksalad plant response rating: 90
